“Also recorded” adds a separate entry of the source.
What was measured:
[1] = system: human endothelial cells of the umbilical vein; test: Test 2 (CIP): apoptosis (DNA fragmentation) induced by cumene hydroperoxide in endothelial cells; assay type: cell-based; conditions: drug 10^-4 M, CIP 5 mM; for activity at 100 µM: Homo sapiens, Endothelial cell, 1 h, read-out: Apoptosis % with respect to the controls treated only with CIP; for activity at 100 µM / Apoptosis % with respect to the controls treated only with CIP: one hour
Description: Test 2 (CIP): Protection parameter of endothelial cell against the oxidative stress induced by cumene hydroperoxide (CIP).
Human endothelial cells of the umbilical vein are prepared according to an usual standard procedure. Fresh umbilical veins are filled with a 0.1% by weight collagenase solution and incubated at 37° C. for 5 minutes.
The cells are collected from the perfusate by centrifugation and harvested in culture flasks T-75, pretreated with human fibronectin. The cells are then harvested in the same medium, further added with 10 ng/ml of bovine hypothalamic growth factor. When the cells of the primary cell culture (i.e. that directly obtained from ex-vivo) form a single layer of confluent cells (about 8,000,000 cells/flask), the culture is stopped and the layers washed and trypsinized. The cellular suspensions are transferred into the wells of a cell culture plate having 24 wells, half of which is then additioned with the same culture medium containing the drug at a 10^−4M concentration, and harvested in a thermostat at 37° C. at a constant moisture. Only the cells coming from said first sub-cultures are used for the experiments with cumene hydroperoxide (CIP).
Before starting the test, the cellular culture medium is removed and the cellular layers are carefully washed with a physiologic solution at a temperature of 37° C. The wells of the culture plate are then incubated for one hour with CIP at a 5 mM concentration in the culture medium. […] 5 replicates for each sample are carried out.
Human endothelial cells of the umbilical vein are prepared according to a standard method. Fresh umbilical veins are filled with a collagenase solution 0.1% by weight and incubated at 37° C. for 5 minutes.
The cells are collected from the perfusate by centrifugation at 800 rpm and harvested in culture flasks T-75, pretreated with human fibronectin. Cells are then harvested in the same medium, added with bovine hypothalamic growth factor (100 ng/ml). When the cells of the primary cell culture (the cells directly removed from ex-vivo umbilical vein) form a single layer of confluent cells (about 8,000,000 cells/flask), harvesting is stopped and the layers are washed and trypsinized. The cellular suspensions are transferred into wells of a culture plate having 24 wells, half of said wells being added with the same culture medium containing the drug at a 10^−4M concentration, and harvested in a thermostat at 37° C. at a constant moisture (90%), CO2=5%. When the drug is not soluble in the culture medium, it is formerly dissolved in a small amount of dimethylsulphoxide. The maximum amount of dimethylsulphoxide which can be added to the culture medium is 0.5%. Only the cells coming from these first subcultures are used for the tests with cumene hydroperoxide (CIP).
Before starting the test, the cellular culture medium is removed and the cellular layers are carefully washed with a standard physiologic solution buffered with phosphate 0.1 M pH 7.0, at the temperature of 37° C. The content of each well is then incubated for one hour with a CIP suspension in the culture medium at a 5 mM concentration. Evaluation of the cellular damage (apoptosis) is carried out by determining the percent variation of the DNA fragmentation in the cultures containing the drug+CIP with respect to the controls treated with CIP only. […] The fluorescence of each sample was determined on 5 replicates. Statistic evaluation has been made with t Student test (p<0.01).

gastrointestinal mucosa [2] = conditions: rats; for Gastro-enteropathy (% incidence) without NEM: maximum tolerated dose
Description: The animals (rats) are distributed in the following groups (no. 10 animals for group):
• 1° group: treatment: only carrier (aqueous suspension 1% w/v of carboxymethylcellulose, dose: 5 ml/Kg when the drug is administered by os, or a physiologic solution when parenterally administered, i.e. by subcutaneous, intraperitoneal, intravenous or intermuscular route), • 2° group: treatment: carrier as above defined+NEM, B) Groups Treated with the Drug: • group I: treatment: carrier+drug, • group II: treatment: carrier+drug+NEM.
The administration routes are those known for the drug, and can be the oral or subcutaneous, intraperitoneal, intravenous or intramuscular route.
The animals are sacrificed after 24 hours and then one proceeds to the evaluation of the damage to the gastrointestinal mucosa.
Test 1—experimental model in vivo with N-ethylmaleimide (NEM): study of the gastric tolerability of some drugs screened as precursors of the compounds of the invention.
The animals (rats, weight about 200 g) are distributed in the following groups (No. 10 animals for group):
• 1° group: treatment: only carrier (aqueous suspension 1% w/v of carboxymethylcellulose, dose: 5 ml/Kg when the drug is administered by os, physiologic solution when by parenteral route), • 2° group: treatment: carrier+NEM, B) Groups Administered with Each Drug: • group I: treatment: carrier+drug, • group II: treatment: carrier+drug+NEM.
The drug is administered one hour later, in suspension in the carrier. Animals are sacrificed after 24 hours and evaluation of the damage to the gastrointestinal mucosa is made by counting the number of rats, inside each group, with lesions to the stomach at a visual inspection. The total number of said rats is then divided by the total number of rats of the group and multiplied by 100.

[3] = system: gastrointestinal mucosa, liver (GPT), vascular endothelium (blood pressure); conditions: rat, in vivo; for Gastroenteropathy % without L-NAME: 4 weeks
Description: The endothelial dysfunction is evaluated by determining the damage to the gastrointestinal mucosa, the hepatic damage and blood hypertension induced by administration of L-NAME.
The animals (rats) are divided in groups as herein below shown. The group receiving L-NAME is treated for 4 weeks with said compound dissolved at a concentration of 400 mg/liter in drinking water. The following groups are constituted (No. 10 animals for group):
(§1) • 1° group: only carrier (aqueous suspension 1% w/v of carboxymethylcellulose, dose: 5 ml/Kg when the drug is administered by os, physiologic solution when administered parenterally), • 2° group: carrier+L-NAME, B) Groups Administered with the Drug: • 3° group: carrier+drug, • 4° group: carrier+drug+L-NAME.
The administration routes are those known for the drug, and can be the oral or subcutaneous, intraperitoneal, intravenous or intramuscular route. […] The drug is administered once a day for 4 weeks.
At the end of the four weeks treatment access to water is prevented and after 24 hours the animals are sacrificed.
One hour before the sacrifice blood-pressure is determined, and a blood pressure increase is taken as an evaluation of the damage to vascular endothelium. […] The hepatic damage is determined by evaluation of the glutamic-pyruvic transaminase (GPT increase) after sacrifice.
Test 3—experimental in vivo model with N^w-nitro-L-arginine-methyl ester (L-NAME): gastric tolerability (gastrointestinal damage incidence), hepatic (GPT dosage, glutamic-pyruvic transaminase) and cardiovascular (blood pressure) of some drugs screened as precursors of the compounds of the invention.
The endothelial dysfunction is evaluated by determining the damage induced by L-NAME administration to the gastrointestinal mucosa, the hepatic damage (GPT increase), and the vascular endothelium or cardiovascular damage as blood hypertension.
The animals (rats, average weight 200 g) are divided in groups as herein below described. The group receiving L-NAME is treated for 4 weeks with said compound dissolved at the concentration of 400 mg/liter in drinking water. The following groups (No. 10 animals for group) are constituted:
as §1, with “group: treatment:” for “group:”, “by parenteral route),” for “administered parenterally),”, “Treated” for “Administered”
Each drug is administered once a day for 4 weeks.
The maximum tolerated dose of the drug being administered to the animals is determined by evaluating, in a separate dose scaling up experiment on untreated animals, the appearance in the animals of symptoms such as enteropathy, diarrhoea, depression, tremor, sedation.
At the end of the four weeks access to water is prevented and after 24 hours the animals are sacrificed.
One hour before the sacrifice blood pressure is determined and a blood pressure increase is taken as an indication of a damage being occurred to vascular endothelium.
The hepatic damage is determined by evaluation after the sacrifice of the glutamic-pyruvic transaminase (GPT increase).
The % gastric lesions have been determined as in Test 1.

gastrointestinal mucosa [4] = conditions: male, Wistar, rat, in vivo, 6 h
Description: Gastric lesions induced by administration of the compounds of the invention in the confront of the corresponding drug precursor.
The animals have been sacrificed 6 hours after the administration. The gastrointestinal mucosa has been removed and inspected. The incidence of the gastrointestinal damage has been evaluated as described in experiment F1.

erythrocytes = test: Test 4A: inhibition of erythrocyte haemolysis induced by cumene hydroperoxide; conditions: 2 mM

Nc1ccc(O)c(C(=O)O)c1 [Mesalamine]
inhibition of apoptosis induced by CIP (in words, p<0.01) [1]: inhibit apoptosis; also recorded: inhibits the apoptosis induced by CIP
Gastro-enteropathy (% incidence) without NEM (gastrointestinal mucosa [2]; 24 hours): 0%

COc1ccc2[nH]c([S+]([O-])Cc3ncc(C)c(OC)c3C)nc2c1 (centres unmarked) [Omeprazol]
Blood pressure % without L-NAME [3]: 100%
GPT % without L-NAME [3]: 100%
Gastroenteropathy % without L-NAME [3]: 0%
inhibition of apoptosis induced by CIP (in words, p<0.01) [1]: do not significantly inhibit apoptosis
Gastro-enteropathy (% incidence) without NEM (gastrointestinal mucosa [2]; 24 hours): 0%

COc1ccc2c(c1)c(CC(=O)O)c(C)n2C(=O)c1ccc(Cl)cc1 [Indomethacin]
inhibition of apoptosis induced by CIP (in words, p<0.01) [1]: not significantly different with respect to that of the controls
inhibition of apoptosis induced by CIP (in words, p<0.01) ([1]; listed as indomethacin): do not significantly inhibit apoptosis
Gastro-enteropathy (% incidence) without NEM (gastrointestinal mucosa [2]; 24 hours): 0%

O=C(CCCO[N+](=O)[O-])Nc1c2c(nc3ccccc13)CCCC2 [Example 11]
Gastropathy % incidence (gastrointestinal mucosa [4]): 20%

Nc1c(Br)cc(Br)cc1CN[C@H]1CC[C@H](O)CC1 [Ambroxol, ambroxol]
inhibition of apoptosis induced by CIP (in words, p<0.01) [1]: inhibit apoptosis
Gastropathy % incidence (gastrointestinal mucosa [4]): 60%
Gastro-enteropathy (% incidence) with NEM (gastrointestinal mucosa [2]; NEM 25 mg/kg s.c. one hour before drug, 24 hours): 80%
gastrointestinal damages / gastric lesions in rats treated with NEM + drug (in words) (gastrointestinal mucosa [2]; NEM 25 mg/kg s.c., drug at maximum tolerated dose): showed gastric lesions
Gastro-enteropathy (% incidence) without NEM (gastrointestinal mucosa [2]; 24 hours): 0%

O=C(CCCO[N+](=O)[O-])NCCCC(O)(P(=O)(O)O)P(=O)(O)O [Example 4, [4-[4-(nitroxy)butyroyl]amino-1-hydroxybutylidene]biphosphonic acid]
Gastropathy % incidence (gastrointestinal mucosa [4]): 10%

CCC(C)(C)C(=O)O[C@H]1C[C@@H](C)C=C2C=C[C@H](C)[C@H](CCC3CC(O)CC(=O)O3)[C@H]21 (some centres unmarked) [Simvastatin, simvastatine]
activity at 100 µM [1]: 72%

O=C(O)Cc1ccccc1Nc1c(Cl)cccc1Cl [Diclofenac, diclofenac]
Gastropathy % incidence (gastrointestinal mucosa [4]): 70%

enalapril
inhibition of apoptosis induced by CIP (in words, p<0.01) [1]: do not significantly inhibit apoptosis
Apoptosis % with respect to the controls treated only with CIP [1]: 80%

CC1(C)S[C@@H]2[C@H](NC(=O)[C@H](N)c3ccccc3)C(=O)N2[C@H]1C(=O)O [ampicilline]
inhibition of apoptosis induced by CIP (in words, p<0.01) [1]: do not significantly inhibit apoptosis

Nc1nc2c(ncn2COCCO)c(=O)[nH]1 [Acyclovir, aciclovir]
inhibition of apoptosis induced by CIP (in words, p<0.01) [1]: do not significantly inhibit apoptosis
Apoptosis % with respect to the controls treated only with CIP [1]: 95%

NC(=O)c1cccnc1 [Nicotinamide]
inhibition of apoptosis induced by CIP (in words, p<0.01) [1]: do not significantly inhibit apoptosis

COC(=O)[C@H](c1ccccc1Cl)N1CCc2sccc2C1 [Clopidogrel]
inhibition of apoptosis induced by CIP (in words, p<0.01) [1]: do not significantly inhibit apoptosis
Apoptosis % with respect to the controls treated only with CIP [1]: 110%

COc1cccc2c1C(=O)c1c(O)c3c(c(O)c1C2=O)C[C@@](O)(C(=O)CO)C[C@@H]3O[C@H]1C[C@H](N)[C@H](O)[C@H](C)O1 [Doxorubicin, doxorubicin]
Blood pressure % without L-NAME [3]: 120%
GPT % without L-NAME [3]: 195%
Gastroenteropathy % without L-NAME [3]: 30%
activity at 100 µM [1]: 94%

Nc1c(Br)cc(Br)cc1CN[C@H]1CC[C@H](OC(=O)CCCO[N+](=O)[O-])CC1 [Example 3, 4-(nitroxy)butyric acid 4-[(2-amino-3,5-dibromophenyl)methylamino] trans cyclohexyl ester]
Gastropathy % incidence (gastrointestinal mucosa [4]): 10%

salbutamol
inhibition of apoptosis induced by CIP (in words, p<0.01) [1]: do not significantly inhibit apoptosis
Apoptosis % with respect to the controls treated only with CIP [1]: 90%

O=C(O)COCCN1CCN(C(c2ccccc2)c2ccc(Cl)cc2)CC1 (centres unmarked) [Cetirizine, cetirizine]
inhibition of apoptosis induced by CIP (in words, p<0.01) [1]: do not significantly inhibit apoptosis

OCCNCCO [Diethanolamine]
inhibition of haemolysis induced by cumene hydroperoxide (in words) (erythrocytes): does not inhibit haemolysis
% Haemolysis inhibition (erythrocytes; preincubated 30 minutes, cumene hydroperoxide 270 μM, at Tmax): 2.5%

CCCCC(C)(O)C/C=C/[C@H]1[C@H](O)CC(=O)[C@@H]1CCCCCCC(=O)OC (mixture of isomers) [Misoprostol]
Blood pressure % without L-NAME [3]: 100%
GPT % without L-NAME [3]: 100%
Gastroenteropathy % without L-NAME [3]: 0%
Gastro-enteropathy (% incidence) without NEM (gastrointestinal mucosa [2]; 24 hours): 0%

From patent US7759392B2, “Pharmaceutical compounds” (Nicox S.A., priority 1999, dated 2010)
